Measured values from patent publication US5250572A (priority 1992, dated 1993).

Columns and labels:
[1] = tested on: serotonin uptake; details: words, cited from earlier work
[2] = tested on: metabolism of concurrently administered drugs such as barbiturates or tricyclic antidepressants
[3] = target: T1, 5HT1B (Rattus norvegicus, UniProt P28564); assay: Inhibition of 3H-serotonin binding to 5HT1B receptor; parameters: species or system male Sprague-Dawley); details: rat brain membranes, 25° C., 30 min, pH 7.4
T1 construct: brain tissues from male Sprague-Dawley rats was homogenized; from tissue; host or cells: brain of male Sprague-Dawley rats, crude synaptosomal membranes
T1 sequence (P28564 whole entry): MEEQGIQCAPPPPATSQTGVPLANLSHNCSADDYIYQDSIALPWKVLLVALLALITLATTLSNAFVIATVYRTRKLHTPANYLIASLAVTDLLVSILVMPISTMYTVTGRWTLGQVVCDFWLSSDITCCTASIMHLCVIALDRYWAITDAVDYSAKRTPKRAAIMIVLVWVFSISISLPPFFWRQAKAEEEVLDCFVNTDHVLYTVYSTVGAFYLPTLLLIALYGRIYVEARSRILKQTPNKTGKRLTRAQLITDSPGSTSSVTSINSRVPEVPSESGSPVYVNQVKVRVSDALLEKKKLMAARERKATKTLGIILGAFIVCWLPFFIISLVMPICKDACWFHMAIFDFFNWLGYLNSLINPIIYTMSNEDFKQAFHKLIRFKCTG
Procedure: (§1) This general procedure is set forth by Wong et al., Life Sciences, 46, 231 (1990).
(§2) Bovine choroid plexus and brain tissues from male Sprague-Dawley rats was homogenized in 9 volumes of 0.32 M sucrose. After centrifugation at 1000×g for 10 minutes and then at 17,000×g for 20 minutes, a crude synaptosomal fraction was sedimented. The pellet was suspended in 100 volumes of 50 mM Tris-HCI, pH 7.4, incubated at 37° C. for 10 minutes, and centrifuged at 50,000×g for 10 minutes. The process was repeated, and the final pellet of membrane was suspended in ice-chilled 50 mM Tris-HCI buffer, pH 7.4.
(§3) Binding of ^3 H-mesulergine to the 5HT1C receptor and other serotonergic ^3 H-ligands to subtypes of 5HT receptors (^3 H-8-hydroxy-2-(di-n-propylamino)tetralin to 5HT1A; ^3 H-serotonin to 5HT1B and 5HT1D; ^3 H-ketanserin to 5HT2; and ^3 H-1-methyl-N-(8-methyl-8-azabicyclo[3.2.1]oct-3-yl)-1H-indazaole-3-carboxamide to 5HT3 receptors) was performed according to the method described in the above reference. Briefly, membranes isolated from bovine choroid plexus (for 5HT1C) or rat brain were incubated at 25° C. for 30 minutes in 2 ml of 50 mM Tris-HCl, pH 7.4; 10 mM pargyline, 0.6 mM ascorbic acid; 5 mM CaCl2; and 2 nM ^3 H-mesulergine or other tritiated ligand. […] Radioactivity was measured with a liquid scintillation spectrometer. […]

[4] = target: T2, 5HT3 receptors (Rattus norvegicus, UniProt P35563); assay: Inhibition of 3H-1-methyl-N-(8-methyl-8-azabicyclo[3.2.1]oct-3-yl)-1H-indazaole-3-carboxamide binding to 5HT3 receptors; parameters: species or system male Sprague-Dawley); details: rat brain membranes, 25° C., 30 min, pH 7.4
T2 construct: brain tissues from male Sprague-Dawley rats was homogenized; from tissue; host or cells: brain of male Sprague-Dawley rats, crude synaptosomal membranes
T2 sequence (P35563 24-483): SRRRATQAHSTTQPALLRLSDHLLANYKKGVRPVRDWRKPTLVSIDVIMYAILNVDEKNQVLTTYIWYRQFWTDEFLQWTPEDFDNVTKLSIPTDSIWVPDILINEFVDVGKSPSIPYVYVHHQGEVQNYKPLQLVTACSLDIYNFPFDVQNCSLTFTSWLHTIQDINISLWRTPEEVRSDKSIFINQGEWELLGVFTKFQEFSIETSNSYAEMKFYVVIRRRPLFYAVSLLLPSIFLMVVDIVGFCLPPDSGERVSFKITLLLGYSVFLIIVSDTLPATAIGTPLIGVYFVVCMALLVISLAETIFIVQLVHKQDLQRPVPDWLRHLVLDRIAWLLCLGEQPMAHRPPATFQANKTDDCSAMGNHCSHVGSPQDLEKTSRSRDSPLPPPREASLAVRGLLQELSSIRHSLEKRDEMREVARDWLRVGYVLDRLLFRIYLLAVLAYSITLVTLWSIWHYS
Procedure: as §1, §2, §3

[5] = target: T3, 5HT1C receptor (Bos taurus, UniProt A0AAA9SBU1); assay: Inhibition of 3H-mesulergine binding to 5HT1C receptor; details: read-out: Inhibition of Radioligand Binding to 5HT Receptor, 1C (IC50); bovine choroid plexus membranes, 2 nM 3H-mesulergine, 25° C., 30 min, pH 7.4; mean of three experiments
T3 sequence (A0AAA9SBU1 33-457): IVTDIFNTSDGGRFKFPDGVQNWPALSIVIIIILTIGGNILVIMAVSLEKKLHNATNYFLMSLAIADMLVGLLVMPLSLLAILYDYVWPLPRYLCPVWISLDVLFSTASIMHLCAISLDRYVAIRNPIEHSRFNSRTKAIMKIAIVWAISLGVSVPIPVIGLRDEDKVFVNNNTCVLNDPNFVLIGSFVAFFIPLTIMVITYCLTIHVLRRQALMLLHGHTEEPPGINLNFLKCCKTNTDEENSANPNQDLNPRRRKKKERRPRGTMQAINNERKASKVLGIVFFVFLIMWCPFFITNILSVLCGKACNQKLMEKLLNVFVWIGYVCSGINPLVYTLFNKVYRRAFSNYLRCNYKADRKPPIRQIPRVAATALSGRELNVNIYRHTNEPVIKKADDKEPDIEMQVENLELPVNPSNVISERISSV
Procedure: as §1, §2, §3

[6] = target: 5HT1D; assay: Inhibition of 3H-serotonin binding to 5HT1D receptor; parameters: species or system male Sprague-Dawley); details: read-out: Inhibition of Radioligand Binding to 5HT Receptor, 1D (IC50), rat brain membranes, 25° C., 30 min, pH 7.4
Procedure: as §1, §2, §3

[7] = Toxicity and therapeutic index (statements in words)
[8] = target: T4, 5HT1A (Rattus norvegicus, UniProt P19327); assay: Inhibition of 3H-8-hydroxy-2-(di-n-propylamino)tetralin binding to 5HT1A receptor; parameters: species or system male Sprague-Dawley); details: rat brain membranes, 25° C., 30 min, pH 7.4
T4 construct: brain tissues from male Sprague-Dawley rats was homogenized; from tissue; host or cells: brain of male Sprague-Dawley rats, crude synaptosomal membranes
T4 sequence (P19327 1-422): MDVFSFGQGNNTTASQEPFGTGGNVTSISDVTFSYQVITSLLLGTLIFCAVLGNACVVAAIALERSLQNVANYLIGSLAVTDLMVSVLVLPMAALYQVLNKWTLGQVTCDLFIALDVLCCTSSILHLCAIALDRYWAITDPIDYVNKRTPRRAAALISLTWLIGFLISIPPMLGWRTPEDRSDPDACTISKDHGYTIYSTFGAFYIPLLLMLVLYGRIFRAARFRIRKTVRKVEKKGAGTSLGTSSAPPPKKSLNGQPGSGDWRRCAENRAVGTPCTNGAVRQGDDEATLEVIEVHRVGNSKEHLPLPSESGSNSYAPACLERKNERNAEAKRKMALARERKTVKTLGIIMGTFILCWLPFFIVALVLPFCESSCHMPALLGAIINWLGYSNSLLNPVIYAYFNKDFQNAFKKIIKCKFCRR
Procedure: as §1, §2, §3

In the case of NCCC(Oc1ccc(C(F)(F)F)cc1)c1ccccc1 (racemic) [Norfluoxetine, 3-(4-trifluoromethylphenoxy)-3-phenylpropylamine], the “serotonin / monoamine uptake blockade” value ([1]; background, known from earlier patents) is listed as “block monoamine uptake, especially serotonin”.

For NCC[C@@H](Oc1ccc(C(F)(F)F)cc1)c1ccccc1 [(R)-Norfluoxetine], the “effect on metabolism of concurrently administered drugs” value [2] was “little effect on metabolism of concurrently administered drugs”, the IC50 [3] was 24 µM and the IC50 [4] was 12 µM. The IC50 [5] was 0.47 µM, the IC50 [6] was 101 µM and the toxicity [7] was “relatively non-toxic”. It also gave an IC50 [8] of 22 µM.

In the case of NCC[C@H](Oc1ccc(C(F)(F)F)cc1)c1ccccc1 [(S)-norfluoxetine], the “activity as serotonin uptake inhibitor” value ([1]; relative to (R)-antipode, from copending application Ser. No. 07/486,478) is listed as “substantially more active than its (R)-antipode”.
